From patent EP0316117A1 (priority 1987, dated 1989) come the findings set out here.

One assay relates to Sendai virus. The experiment in a line: Sendai virus assay (method as described for Parainfluenza). Type of assay: cell-based. Particulars: reduction in the virus titer compared to control.
In the next assay the test system is Parainfluenza virus. The experiment in a line: Parainfluenza virus pre-incubated with compound, grown in fertilized hen eggs, hemagglutination read-out. Type of assay: cell-based. Further details: key: -: undetectable; ++++: indicative of hemagglutination produced by virus grown under control conditions. Here is the method:
The effectiveness of certain novel compounds was tested against Parainfluenza virus which was grown in fertilized hen eggs as determined by the method of Haywood, J. of Mol. Biol., 83, 427 (1974). The virus was at titer of 10^5 to 10^6 was incubated in the presence of 10 ug/ml or 100 u^g/ml of one of the four compounds at 37° C for 2 hours. The mixtures of the virus and anti-viral compound were diluted to a final concentration of 10-^7 then injected into 9-day old fertilized hen eggs using 5 to 6 eggs for each dilution and incubated at 37° C for 48 hours. After the incubation period, a drop of amniotic fluid from the eggs was put on mirror-glass and mixed with 2% washed hen erythrocytes. Appearance of hemagglutination indicated the presence of virus in the egg. LDso was calculated from the results. The following Table 1 presents the results that were obtained. The virus concentrations ranged from -(undetectable) to + + + + (indicative of hemagglutination produced by virus grown under control conditions).

Setting [1] is: compound 100 µg/ml, Virus Concentrations 10.
Where [2] appears, read: compound 100 µg/ml, Virus Concentrations 10^2.
Where [3] appears, read: compound 100 µg/ml, Virus Concentrations 10^3.

As for “4-N-Acetyl phosphatidylethanolamine [A-PE]”, the “Virus Titer Reduction” value is on record as “about 50%” in the assay with Sendai virus (1µg/ml), “ranged from 75-95%” in the assay with Sendai virus (10µg/ml), “ranged from 90-99%” with Sendai virus (50µg/ml) and 100% (virus undetectable) with Sendai virus (100µg/ml).
For the substance Phosphatidyl benzyl alcohol [P-BA], the “hemagglutination (presence of virus in the egg)” value (shortened to “hemagglutination”) with Parainfluenza virus (setting [1]), with Parainfluenza virus (setting [2]) and in the assay on Parainfluenza virus (setting [3]) was “-” in each case.
Turning to “N-(1,1-dimethyl 3-oxybutyl phosphatidyl ethanolamine [DMOB-PE]”, the “Virus Titer Reduction” value in the assay on Sendai virus (1µg/ml) is “less than 10%”; with Sendai virus (10µg/ml), “ranged from 75-99%”; in the assay on Sendai virus (50µg/ml), “ranged from 90-93%”; with Sendai virus (100µg/ml), 100% (virus undetectable). For the same substance, the “hemagglutination” value with Parainfluenza virus (compound 10 µg/ml, Virus Concentrations 10^4) is “++++”; with Parainfluenza virus (setting [1]), “-”; with Parainfluenza virus (setting [2]), “-”.
For “5-Schiff Base of PE and Menadione (Vitamin K3) [PE-M]”, the “hemagglutination” value is reported as “-” in the assay with Parainfluenza virus (compound 10 µg/ml, Virus Concentrations 10); “-” in the assay with Parainfluenza virus (compound 10 µg/ml, Virus Concentrations 10^2); “-” with Parainfluenza virus (setting [1]); “-” in the assay on Parainfluenza virus (setting [2]); “-” in the assay with Parainfluenza virus (setting [3]).
